Laboratory results as given in US20020115659A1, “Compounds having heterocyclic groups containing two nitrogen atoms for treating multidrug resistance” (priority 2000, published 2002).

System: NIH-MDR1-G185 cells
Experiment: Fluorescent substrate accumulation assay (BODIPY-FL Taxol accumulation)
Type: cell-based
Details: MDR modulator 10 micromolar, 15 min preincubation; BODIPY-FL Taxol 500 nM, 40 min at 37° C.; fluorescence in presence/absence of modulator
Experimental: NIH-MDR1-G185 cells (obtained from M. Gottesman, NIH) were harvested and resuspended in RPMI-1640 containing L-glutamine, 10% Cosmic Calf Serum and penicillin-streptomycin. Cell suspension aliquots of 175 microliters (1×10^5 cells) were added to individual wells of a 96 well microtiter plate and preincubated for 15 min at 37° C. with 20 microliter MDR modulator diluted in cell culture media to give a final concentration of 10 micromolar. Control wells received no modulating agent. BODIPY-FL Taxol (Molecular Probes, Eugene, Oreg.) was added to each well in 10 microliter aliquots to give a final concentration of 500 nM and cells were incubated for 40 min at 37° C. Cells were centrifuged at 100× g for 5 min at 4° C. and the cell pellet washed with 200 microliters cold PBS to remove fluorescent medium from wells. Cells were centrifuged once more, media removed, and cells resuspended in 200 microliters cold PBS. Fluorescence accumulation was measured in a fluorescence plate reader fitted with an excitation filter of 485 nm and an emission filter of 538 rn. BODIPY-FL taxol accumulation in the cells was calculated as follows:
Accumulation Index=(fluorescence in NIH-MDR1-G185 cells in the presence of modulator)/(fluorescence in NIH-MDR1-G185 cells in absence of modulator)
Accumulation Index of various compounds prepared above was tested according to the method in Reference Example 3.

Compound	Accumulation Index
O=C(C(CCCc1ccccc1)CCCc1ccccc1)N1CCCCN(C[C@@H](O)COc2cccc3ncccc23)C1 [Example 5]	12
COc1ccc(S(=O)(=O)N2CCC(=O)N(c3ccccc3)C2C(=O)N2CCN(C(c3ccccc3)c3ccccc3)CC2)cc1OC (centres unmarked) [Example 12]	7
